From patent publication US20030114512A1, “Compounds with 5-ht2 and 5-ht1a agonist activity for treating glaucoma” (priority 2002, published 2003)
Like-named read-outs stand apart in the source and are kept apart here.

How the values were obtained:
[1] = target: T1, human cloned 5-HT1A receptors (Homo sapiens, UniProt P08908); assay: 5-HT1A receptor binding assay ([3H]8-OH-DPAT); conditions: [3H]8-OH-DPAT, CHO cell membranes; read-out: IC50, nM (SEM) 5-HT1A receptor binding
T1 construct: purchased NEN (manufactured by Biosignal, Inc., Montreal, Canada); host or cells: CHO cells (membranes)
T1 sequence (P08908 1-422): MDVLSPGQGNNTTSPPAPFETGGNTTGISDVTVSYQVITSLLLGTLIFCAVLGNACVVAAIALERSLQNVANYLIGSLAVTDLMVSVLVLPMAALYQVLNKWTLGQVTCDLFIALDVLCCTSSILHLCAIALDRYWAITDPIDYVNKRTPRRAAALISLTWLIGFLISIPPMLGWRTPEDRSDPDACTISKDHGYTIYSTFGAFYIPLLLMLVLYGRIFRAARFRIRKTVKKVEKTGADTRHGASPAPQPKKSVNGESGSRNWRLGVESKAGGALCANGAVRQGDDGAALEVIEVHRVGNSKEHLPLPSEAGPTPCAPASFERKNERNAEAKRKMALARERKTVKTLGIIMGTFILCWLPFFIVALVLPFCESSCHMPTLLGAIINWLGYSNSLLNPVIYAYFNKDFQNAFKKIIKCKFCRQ
Experimental: 5-HT1A Receptor Binding Assay
5-HT1A binding studies were performed with human cloned receptors expressed in Chinese hamster ovary (CHO) cells using (^3H)8-OH DPAT as the ligand. Membranes from Chinese hamster ovary cells (CHO) expressing cloned 5-HT1A receptors (manufactured for NEN by Biosignal, Inc., Montreal, Canada) were homogenized in approximately 40 volumes of 50 mM Tris pH 7.4 for 5 sec. Drug dilutions were made using a Beckman Biomek 2000 robot (Beckman Instruments, Fullerton, Calif.). Incubations were conducted with membrane prep, test compounds, and 0.25 nM [^3H]8-OH-DPAT (NEN, Boston, Mass.) in the same buffer at 27° C. for 1 h. Assays were terminated by rapid vacuum filtration over Whatman GF/B glass fiber filters pre-soaked in 0.3% polyethyleneimine. Bound radioactivity was measured using liquid scintillation spectrometry. Data were analyzed using non-linear curve fitting programs (Sharif et al., J. Pharmac. Pharmacol. 51: 685-694, 1999).
Ligand binding studies can also be run using membrane preparations from calf and rat brain (local source) and human cortex membranes. Specific brain regions were dissected out, homogenized in 10 volumes of 0.32 M sucrose and centrifuged for 10 min at 700×g. The resulting supernatant was centrifuged at 43,500×g for 10 min and the pellet re-suspended in 50 mM Tris-HCl (pH 7.7, 25° C.) using a 10 sec polytron treatment. Aliquots were stored at −140° C. To remove endogenous serotonin, the preps were incubated at 37° C. for 10 min prior to the experiment. Assay incubations were terminated by rapid filtration over Whatman GF/C filters using a Brandel cell harvester. Ki values were calculated using the Cheng-Prusoff equation (De Vry et al., J. Pharm. Exper. Ther. 284:1082-1094, 1998.)

5-HT2 receptor = target: T2, 5-HT2 receptor (Rattus norvegicus, UniProt P14842); assay: 5-HT2 functional assay: phosphoinositide (PI) turnover; assay type: cell-based; conditions: for Emax: A7r5 cells, relative to 5-HT set at 100%, read-out: Efficacy (Emax, %) 5-HT2 functional; for EC50: [3H]inositol phosphates, A7r5 rat vascular smooth muscle cells, read-out: EC50, nM (SEM) 5-HT2 functional
T2 construct: A7r5 rat vascular smooth muscle cells; endogenous in cells; host or cells: A7r5 rat vascular smooth muscle cells
Experimental: 5-HT2 Functional Assay: Phosphoinositide (PI) Turnover Assay
The relative agonist activity of serotonergic compounds at the 5-HT2 receptor can be determined in vitro using the ability of the compounds to stimulate the production of [^3H]inositol phosphates in [^3H]myo-inositol-labeled A7r5 rat vascular smooth muscle cells by their ability to activate the enzyme phospholipase C. These cells are grown in culture plates, maintained in a humidified atmosphere of 5% CO2 and 95% air and fed semi-weekly with Dulbecco's modified Eagle medium (DMEM) containing 4.5 g/l glucose and supplemented with 2 mM glutamine, 10 μg/ml gentamicin, and 10% fetal bovine serum. For the purpose of conducting the phosphoinositide (PI) turnover experiments, the A7r5 cells are cultured in 24-well plates as previously [J. Pharmacol. Expt. Ther., 286, 411 (1998)]. Confluent cells are exposed for 24-30 hrs to 1.5 μCi [^3H]-myo-inositol (18.3 Ci/mmol) in 0.5 ml of serum-free medium. Cells are then rinsed once with DMEM/F-12 containing 10 mM LiCl prior to incubation with the test agent (or solvent as the control) in 1.0 ml of the same medium for 1 hr at 37° C., after which the medium is aspirated and 1 ml of cold 0.1 M formic acid added to stop the reaction. The chromatographic separation of [^3H]-inositol phosphates ([^3H]-IPs) on an AG-1-X8 column is performed as previously described [J. Pharmacol. Expt. Ther. 286, 411 (1998)] with sequential washes with H2O and 50 mM ammonium formate, followed by elution of the total [^3H]-IPs fraction with 1.2 M ammonium formate containing 0.1 M formic acid. The eluate (4 ml) is collected, mixed with 15 ml scintillation fluid, and the total [^3H]-IPs determined by scintillation counting on a beta counter. Concentration-response data are analyzed by the sigmoidal fit function of the Origin Scientific Graphics software (Microcal Software, Northampton, Mass.) to determine agonist potency (EC50 value) and efficacy (Emax). Serotonin (5-HT) is used as a positive control (standard) agonist compound and the efficacy of test compounds is compared to that of 5-HT (set at 100%). The concentration of the compound needed to stimulate the production of [^3H]-IPs by 50% of the maximum response is termed the EC50 value.

intraocular pressure [2] = assay: IOP response in lasered (hypertensive) eyes of conscious cynomolgus monkeys; assay type: in vivo, cynomolgus monkey; conditions: 300 μg topical ocular
Experimental: IOP Response in Lasered (Hypertensive) Eyes of Conscious Cynomolgus Monkeys
Intraocular pressure (IOP) was determined with an Alcon Pneumatonometer after light corneal anesthesia with 0.1% proparacaine. Eyes were washed with saline after each measurement. After a baseline IOP measurement, test compound was instilled in one 30 μL aliquot to the right eyes only of nine cynomolgus monkeys. Vehicle was instilled in the right eyes of six additional animals. Subsequent IOP measurements were taken at 1, 3, and 6 hours.

intraocular pressure [3] = conditions: monkey; ascribed to α1A receptor activity; cited from earlier work
intraocular pressure [4] = conditions: rabbits; cited from earlier work

T2 sequence (P14842 whole entry): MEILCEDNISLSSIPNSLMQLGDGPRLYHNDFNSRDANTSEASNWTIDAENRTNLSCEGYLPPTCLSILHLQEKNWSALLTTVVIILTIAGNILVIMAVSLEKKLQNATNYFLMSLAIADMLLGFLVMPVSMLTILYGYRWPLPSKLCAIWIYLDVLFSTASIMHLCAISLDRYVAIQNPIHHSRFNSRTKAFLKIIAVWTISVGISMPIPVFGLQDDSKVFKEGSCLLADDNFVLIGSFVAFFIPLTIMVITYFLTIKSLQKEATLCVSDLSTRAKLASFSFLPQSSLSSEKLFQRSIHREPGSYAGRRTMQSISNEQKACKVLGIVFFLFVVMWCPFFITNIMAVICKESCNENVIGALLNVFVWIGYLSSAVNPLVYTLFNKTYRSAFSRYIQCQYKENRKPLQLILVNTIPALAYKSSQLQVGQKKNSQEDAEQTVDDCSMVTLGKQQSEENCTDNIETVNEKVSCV

| Compound | IC50 [1] | Emax (5-HT2 receptor) | EC50 (5-HT2 receptor) | Percent IOP Reduction (intraocular pressure [2]; 1 hour after dose) | Percent IOP Reduction (intraocular pressure [2]; 3 hours after dose) | Percent IOP Reduction (intraocular pressure [2]; 6 hours after dose) | Effect on IOP (intraocular pressure [3]) | Effect on IOP (intraocular pressure [4]) |
| --- | --- | --- | --- | --- | --- | --- | --- | --- |
| CC(N)Cn1ccc2cc(Cl)ccc21.O=C(O)/C=C/C(=O)O (centres unmarked) [1-(2-aminopropyl) 5-chloroindole fumarate] | 417 nM | 104% | 1390 nM | 1.2% | 16% | 20.1% | – | – |
| COc1ccc2ccn(CC(C)N)c2c1.O=C(O)/C=C/C(=O)O (centres unmarked) [1-(2-aminopropyl) 6-methoxyindole fumarate] | 225 nM | 88% | 255 nM | 22.5% | 33.1% | 27.5% | – | – |
| COc1ccccc1N1CCN(CCCNc2c(C)c(=O)n(C)c(=O)n2C)CC1 [5-methylurapidil] | – | – | – | – | – | – | lowers IOP | – |
| CCCN(CCC)C1CCc2cccc(O)c2C1 (centres unmarked) [Compound 8-OH-DPAT, 8-hydroxydipropylaminotetralin] | – | – | – | – | – | – | – | reduces IOP |
